Measurements published in PubChem BioAssay (NCI).
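96-well plates; 48 h exposure; 5 concentrations. Endpoints by linear interpolation between flanking doses. Not reached: highest tested concentration assigned. Here, GI50 denotes the concentration required for 50% inhibition of growth. At the TGI there is no net growth.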

Columns and labels:
Test in all cases: DTP human tumour cell line panel, 48 h; in the data active = GI50 below about 0.43 µM; inactive = the rest
[1] = tested on: 786-0 renal
[2] = tested on: A549 NSCLC
[3] = tested on: ACHN renal
[4] = tested on: BT-549 breast
[5] = tested on: CAKI-1 renal
[6] = tested on: CCRF-CEM leukemia
[7] = tested on: COLO 205 colon
[8] = tested on: DU-145 prostate
[9] = tested on: EKVX NSCLC
[10] = tested on: HCC-2998 colon
[11] = tested on: HCT-116 colon
[12] = tested on: HCT-15 colon
[13] = tested on: HL-60(TB) leukemia
[14] = tested on: HOP-62 NSCLC
[15] = tested on: HOP-92 NSCLC
[16] = tested on: HT29 colon
[17] = tested on: IGROV1 ovarian
[18] = tested on: K-562 leukemia
[19] = tested on: KM12 colon
[20] = tested on: LOX IMVI melanoma
[21] = tested on: M14 melanoma
[22] = tested on: MALME-3M melanoma
[23] = tested on: MCF7 breast
[24] = tested on: MDA-N
[25] = tested on: MOLT-4 leukemia
[26] = tested on: NCI-H226 lung
[27] = tested on: NCI-H23 lung
[28] = tested on: NCI-H460 lung
[29] = tested on: NCI-H522 lung
[30] = tested on: NCI/ADR-RES ovarian
[31] = tested on: OVCAR-3 ovarian
[32] = tested on: OVCAR-4 ovarian
[33] = tested on: OVCAR-5 ovarian
[34] = tested on: OVCAR-8 ovarian
[35] = tested on: PC-3 prostate
[36] = tested on: RPMI-8226 leukemia
[37] = tested on: RXF 393 renal
[38] = tested on: SF-268 CNS
[39] = tested on: SF-295 CNS
[40] = tested on: SF-539 CNS
[41] = tested on: SK-MEL-28 melanoma
[42] = tested on: SK-MEL-5 melanoma
[43] = tested on: SK-OV-3 ovarian
[44] = tested on: SN12C renal
[45] = tested on: SNB-19 CNS
[46] = tested on: SNB-75 CNS
[47] = tested on: SR leukemia
[48] = tested on: SW-620 colon
[49] = tested on: TK-10 renal
[50] = tested on: U251 CNS
[51] = tested on: UACC-257 melanoma
[52] = tested on: UACC-62 melanoma
[53] = tested on: UO-31 renal
[54] = tested on: A498 renal
[55] = tested on: HS 578T breast
[56] = tested on: MDA-MB-231 breast
[57] = tested on: MDA-MB-435
[58] = tested on: SK-MEL-2 melanoma
[59] = tested on: T-47D breast

CC[N+](C)(CC)CCNC(=O)C(O)(c1ccccc1)c1ccccc1
> 100000 nM: TGI [7] | TGI [11] | TGI [19] | TGI [20] | TGI [37] | TGI [42] | TGI [47] | TGI [50] | TGI [52]
> 100 µM: TGI [1] | TGI [2] | TGI [3] | TGI [4] | TGI [5] | TGI [6] | TGI [8] | TGI [9] | TGI [10] | TGI [12] | TGI [13] | TGI [14] | TGI [15] | TGI [16] | TGI [17] | TGI [18] | TGI [21] | TGI [22] | TGI [23] | TGI [24] | TGI [25] | TGI [26] | TGI [27] | TGI [28] | TGI [29] | TGI [30] | TGI [31] | TGI [32] | TGI [33] | TGI [34] | TGI [35] | TGI [36] | TGI [38] | TGI [39] | TGI [40] | TGI [41] | TGI [43] | TGI [44] | TGI [45] | TGI [46] | TGI [48] | TGI [49] | TGI [51] | TGI [53]

COc1ccc(/C=C2\CS(=O)(=O)C/C(=C\c3ccc(OC)cc3)C2=O)cc1
1850 nM: TGI [50]
active: GI50 [47] 182 nM
inactive: GI50 [1] 1750 nM | GI50 [54] 1760 nM | GI50 [2] 2000 nM | GI50 [3] 1790 nM | GI50 [4] 2170 nM | GI50 [5] 2160 nM | GI50 [6] 1350 nM | GI50 [7] 1520 nM | GI50 [8] 2000 nM | GI50 [9] 3.07 µM | GI50 [10] 1710 nM | GI50 [11] 472 nM | GI50 [12] 1840 nM | GI50 [13] 1960 nM | GI50 [14] 2010 nM | GI50 [15] 8.74 µM | GI50 [55] 3.07 µM | GI50 [16] 999 nM | GI50 [17] 1750 nM | GI50 [18] 1160 nM | GI50 [19] 676 nM | GI50 [20] 646 nM | GI50 [21] 1610 nM | GI50 [22] 2410 nM | GI50 [23] 510 nM | GI50 [56] 3.01 µM | GI50 [57] 1400 nM | GI50 [25] 2220 nM | GI50 [26] 16.8 µM | GI50 [27] 1640 nM | GI50 [28] 1900 nM | GI50 [29] 1150 nM | GI50 [30] 2060 nM | GI50 [31] 1790 nM | GI50 [32] 3.19 µM | GI50 [33] 3.16 µM | GI50 [34] 1210 nM | GI50 [35] 2090 nM | GI50 [36] 567 nM | GI50 [37] 1480 nM | GI50 [38] 1700 nM | GI50 [39] 2420 nM | GI50 [40] 2010 nM | GI50 [58] 3.09 µM | GI50 [41] 1700 nM | GI50 [42] 1570 nM | GI50 [43] 3.3 µM | GI50 [44] 1780 nM | GI50 [45] 4.21 µM | GI50 [46] 8.18 µM | GI50 [48] 1320 nM | GI50 [59] 2910 nM | GI50 [49] 2670 nM | GI50 [50] 497 nM | GI50 [51] 1670 nM | GI50 [52] 1440 nM | GI50 [53] 1450 nM
> 31.3 µM: TGI [55]
> 22.2 µM: TGI [25]
10.3 µM: TGI [33]
3.09 µM: TGI [10] | TGI [21]
1890 nM: TGI [19]
28.4 µM: TGI [59]
5.71 µM: TGI [17]
> 36.8 µM: TGI [9]
5.34 µM: TGI [38]
3.02 µM: TGI [29] | TGI [53]
69 µM: TGI [15]
> 100 µM: TGI [26]
> 30.8 µM: TGI [32]
3.37 µM: TGI [48]
7.84 µM: TGI [22]
> 47.4 µM: TGI [46]
18.1 µM: TGI [35] | TGI [45]
4.28 µM: TGI [40]
4.49 µM: TGI [28]
3.35 µM: TGI [3]
3.17 µM: TGI [41]
5.28 µM: TGI [4]
4.82 µM: TGI [12]
26.2 µM: TGI [43]
6.91 µM: TGI [49]
6.1 µM: TGI [5]
2920 nM: TGI [42]
6.59 µM: TGI [39]
6.68 µM: TGI [34]
4.36 µM: TGI [14]
4.11 µM: TGI [31]
7.83 µM: TGI [23]
2780 nM: TGI [52]
2900 nM: TGI [37]
9.65 µM: TGI [56]
1910 nM: TGI [20]
3.21 µM: TGI [1]
4.04 µM: TGI [44]
5.29 µM: TGI [2] | TGI [57]
3.63 µM: TGI [51]
5.41 µM: TGI [8]
> 20.9 µM: TGI [58]
2940 nM: TGI [7]
3.32 µM: TGI [27]
4.89 µM: TGI [36]
423 nM: TGI [47]
5.73 µM: TGI [13]
3.67 µM: TGI [54]
4.87 µM: TGI [30]
1430 nM: TGI [11]
